Assay results published in US20060263802A1 (priority 2003, published 2006).

Tests used:
Assay type in all cases: binding
[1] = system: human monoclonal antibody CRJA
[2] = system: human monoclonal antibody CR57
[3] = system: human monoclonal antibody CRJB
[4] = system: human monoclonal antibody CRJA; remark: listed apart in the source
[5] = system: human monoclonal antibody CRJB; remark: listed apart in the source
[6] = system: human monoclonal antibody CR57; remark: listed apart in the source

Sequence | Binding of CRJA to linear peptide (PEPSCAN-ELISA signal) [1] | Binding of CR57 (10 μg/ml) to looped/cyclic peptide (PEPSCAN-ELISA) [2] | Binding of CRJB (10 μg/ml) to looped/cyclic peptide (PEPSCAN-ELISA) [3] | Binding of CRJA (10 μg/ml) to looped/cyclic peptide (PEPSCAN-ELISA) [4] | Binding of CRJB to linear peptide (PEPSCAN-ELISA signal) [5] | Binding of CR57 to linear peptide (PEPSCAN-ELISA signal) [6] | Binding of CR57 (10 μg/ml) to looped/cyclic peptide (PEPSCAN-ELISA signal) [2] | Binding of CRJB (10 μg/ml) to looped/cyclic peptide (PEPSCAN-ELISA signal) [3] | Binding of CRJA (10 μg/ml) to looped/cyclic peptide (PEPSCAN-ELISA signal) [4]
QSSLLQQHMELLESS | 98 | 97 | 85 | 99 | 114 | 82 | – | – | –
QTSNETKWCPPDQLV | 90 | 118 | 62 | 106 | 120 | 92 | – | – | –
RAAYNWKMAGDPRYE | 92 | – | – | – | 130 | 90 | 141 | 101 | 86
RASKGSETCGFVDER | 90 | 105 | 90 | 100 | 110 | 86 | – | – | –
RCHPHVNGVFFNGII | 108 | 104 | 100 | 106 | 141 | 98 | – | – | –
REECLDALESIMTTK | 94 | 89 | 79 | 92 | 110 | 94 | – | – | –
RGKRASKGSETCGFV | 87 | 101 | 68 | 102 | 104 | 75 | – | – | –
RGLYKSLKGACKLKL | 107 | 96 | 96 | 113 | 121 | 90 | – | – | –
RKHFRPTPDACRAAY | 57 | – | – | – | 107 | 64 | 72 | 79 | 41
RKLVPGFGKAYTIFN | 48 | 52 | 79 | 44 | 115 | 47 | – | – | –
RKREECLDALESIMT | 96 | 132 | 96 | 129 | 110 | 73 | – | – | –
RLGMSCDIFTNSRGK | 92 | – | – | – | 106 | 88 | 105 | 104 | 110
RLMDGTWVAMQTSNE | 99 | 96 | 89 | 82 | 113 | 100 | – | – | –
RLSHLRKLVPGFGKA | 93 | 111 | 111 | 106 | 123 | 93 | – | – | –
RPTPDACRAAYNWKM | 123 | – | – | – | 101 | 77 | 76 | 51 | 96
